Several values for one entry are separate records, joined by “and”; a condition that tells them apart may be missing. Equal values may be shown once. Toxic doses and inconclusive results are not listed. The calls were made as follows: active = survival T/C of 150% or more; inactive = T/C below 125% in these data.
Test system: P388 leukemia ip, CD2F1 mice, survival T/C
Assay: NCI In Vivo Anticancer Drug Screen. Data for tumor model P388 Leukemia (intraperitoneal) in CD2F1 (CDF1) mice
Settings: endpoint: median survival time, higher = longer survival
In short: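 Mice carrying the transplanted tumor received test compound or vehicle. Survival was recorded in each group, and the value is the treated-group measurement divided by that of the vehicle-treated control group.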

[1] = dose: 60.0 mg/kg/injection, schedule: Q01DX005 (ip), vehicle: saline with Tween-80
[2] = dose: 120.0 mg/kg/injection, schedule: Q01DX005 (ip), vehicle: saline with Tween-80
[3] = dose: 100.0 mg/kg/injection, schedule: Q01DX009 (ip), vehicle: saline with Tween-80
[4] = dose: 200.0 mg/kg/injection, schedule: Q01DX009 (ip), vehicle: saline with Tween-80
[5] = dose: 50.0 mg/kg/injection, schedule: Q01DX005 (ip), vehicle: saline with Tween-80
[6] = dose: 100.0 mg/kg/injection, schedule: Q01DX005 (ip), vehicle: saline with Tween-80
[7] = dose: 6.25 mg/kg/injection, schedule: Q01DX009 (ip), vehicle: saline with Tween-80
[8] = dose: 12.5 mg/kg/injection, schedule: Q01DX009 (ip), vehicle: saline with Tween-80
[9] = dose: 25.0 mg/kg/injection, schedule: Q01DX009 (ip), vehicle: saline with Tween-80
[10] = dose: 50.0 mg/kg/injection, schedule: Q01DX009 (ip), vehicle: saline with Tween-80
[11] = dose: 25.0 mg/kg/injection, schedule: Q01DX009 (ip), vehicle: saline
[12] = dose: 50.0 mg/kg/injection, schedule: Q01DX009 (ip), vehicle: saline
[13] = dose: 100.0 mg/kg/injection, schedule: Q01DX009 (ip), vehicle: saline
[14] = dose: 100.0 mg/kg/injection, schedule: Q04DX003 (ip), vehicle: saline with Tween-80

Measured: T/C

O=C(Cc1csc2ccccc12)NCC1CC1
inactive: [1] 100 % of control | [2] 99 % of control | dose: 240.0 mg/kg/injection, schedule: Q01DX005 (ip), vehicle: saline with Tween-80 99 % of control

O=[n+]1cc2ccccn2cc1-c1ccccc1
inactive: [3] 90 % of control | [4] 95 % of control | dose: 400.0 mg/kg/injection, schedule: Q01DX009 (ip), vehicle: saline with Tween-80 118 % of control

CN(C)CCC(=O)C1CC1
inactive: dose: 12.5 mg/kg/injection, schedule: Q01DX005 (ip), vehicle: suspension in saline 94 % of control | dose: 25.0 mg/kg/injection, schedule: Q01DX005 (ip), vehicle: suspension in saline 97 % of control | [5] 92 % of control | dose: 50.0 mg/kg/injection, schedule: Q01DX005 (ip), vehicle: suspension in saline 100 % of control

NC1(c2ccccc2)CON=C(c2ccccc2)C1 (stereo not drawn)
inactive: dose: 6.25 mg/kg/injection, schedule: Q04DX003 (ip), vehicle: saline 109 % of control | dose: 12.5 mg/kg/injection, schedule: Q04DX003 (ip), vehicle: saline 104 % of control | dose: 25.0 mg/kg/injection, schedule: Q04DX003 (ip), vehicle: saline 102 % of control | dose: 100.0 mg/kg/injection, schedule: Q04DX003 (ip), vehicle: saline 100 % of control

Cc1c(N=Nc2ccccc2[N+](=O)[O-])c(-c2ccccc2)nn1C(N)=S
inactive: dose: 100.0 mg/kg/injection, schedule: Q01DX001 (ip), vehicle: Klucel (hydroxypropylcellulose) (HPC) 114 % of control | dose: 200.0 mg/kg/injection, schedule: Q01DX001 (ip), vehicle: Klucel (hydroxypropylcellulose) (HPC) 114 % of control | dose: 400.0 mg/kg/injection, schedule: Q01DX001 (ip), vehicle: Klucel (hydroxypropylcellulose) (HPC) 108 % of control

O=C(O)Cc1cc(Br)c(O)c(Br)c1
inactive: dose: 12.5 mg/kg/injection, schedule: Q01DX009 (ip), vehicle: distilled water + Tween-80 107 % of control | dose: 25.0 mg/kg/injection, schedule: Q01DX009 (ip), vehicle: distilled water + Tween-80 107 % of control | dose: 50.0 mg/kg/injection, schedule: Q01DX009 (ip), vehicle: distilled water + Tween-80 98 % of control | dose: 100.0 mg/kg/injection, schedule: Q01DX009 (ip), vehicle: distilled water + Tween-80 98 % of control | dose: 200.0 mg/kg/injection, schedule: Q01DX009 (ip), vehicle: distilled water + Tween-80 100 % of control

CCCCn1cnc2c(=S)nc[nH]c21
inactive: [5] 94 % of control | [6] 105 % of control | dose: 200.0 mg/kg/injection, schedule: Q01DX005 (ip), vehicle: saline with Tween-80 102 % of control

Cc1c(C(=O)O)nc(-c2ccc3c(n2)C(=O)C(N)=CC3=O)c2[nH]c3ccccc3c12
inactive: dose: 0.1 mg/kg/injection, schedule: Q01DX009 (ip), vehicle: distilled water + Tween-80 + alcohol 110 % of control | dose: 0.2 mg/kg/injection, schedule: Q01DX009 (ip), vehicle: distilled water + Tween-80 + alcohol 116 % of control | dose: 0.4 mg/kg/injection, schedule: Q01DX009 (ip), vehicle: distilled water + Tween-80 + alcohol 112 % of control | dose: 0.8 mg/kg/injection, schedule: Q01DX009 (ip), vehicle: distilled water + Tween-80 + alcohol 113 % of control

O=C1c2ccccc2C(=O)N1CC[P+](C1CCCCC1)(C1CCCCC1)C1CCCCC1
inactive: dose: 0.78 mg/kg/injection, schedule: Q01DX009 (ip), vehicle: saline with Tween-80 110 % of control | dose: 1.56 mg/kg/injection, schedule: Q01DX009 (ip), vehicle: saline with Tween-80 112 % of control | dose: 3.13 mg/kg/injection, schedule: Q01DX009 (ip), vehicle: water 97 % of control | [7] 116 % of control | dose: 6.25 mg/kg/injection, schedule: Q01DX009 (ip), vehicle: water 118 % of control | dose: 12.5 mg/kg/injection, schedule: Q01DX009 (ip), vehicle: water 118 % of control | dose: 25.0 mg/kg/injection, schedule: Q01DX009 (ip), vehicle: water 118 % of control | dose: 50.0 mg/kg/injection, schedule: Q01DX009 (ip), vehicle: water 86 % of control

C#CC(=O)O
inactive: [7] 111 % of control | [8] 95 % of control | [9] 92 % of control

Cc1cc2cc3c4c(nnc(NN)c4c2o1)-c1ccccc1CC3
inactive: dose: 3.75 mg/kg/injection, schedule: Q01DX005 (ip), vehicle: saline with Tween-80 99 % of control | dose: 7.5 mg/kg/injection, schedule: Q01DX005 (ip), vehicle: saline with Tween-80 101 % of control | dose: 15.0 mg/kg/injection, schedule: Q01DX005 (ip), vehicle: saline with Tween-80 99 % of control

CS(C)=NC(=Nc1ccc(Cl)cc1)c1ccccc1
inactive: [9] 95 % of control | [10] 106 % of control

Cc1cc(=O)c2c(N(C)C)cccc2[nH]1
inactive: dose: 50.0 mg/kg/injection, schedule: Q01DX009 (ip), vehicle: acid diluted with saline 104 % of control | dose: 100.0 mg/kg/injection, schedule: Q01DX009 (ip), vehicle: acid diluted with saline 91 % of control | dose: 200.0 mg/kg/injection, schedule: Q01DX009 (ip), vehicle: acid diluted with saline 96 % of control

Cc1cccc(OC(=O)Nc2ccc(C(=O)O)c(O)c2)c1
inactive: [1] 106 % of control | [2] 90 % of control

CN1CCCN(C(c2ccccc2)c2ccc(Br)cc2)CC1 (stereo not drawn)
inactive: [11] 97 % of control | [12] 103 % of control | [13] 101 % of control and 91 % of control

C=CCc1ccc(C(=O)OCCCCCCCCCC)c(OC)c1
inactive: dose: 50.0 mg/kg/injection, schedule: Q01DX009 (ip), vehicle: Klucel (hydroxypropylcellulose) (HPC) 103 % of control | dose: 100.0 mg/kg/injection, schedule: Q01DX009 (ip), vehicle: Klucel (hydroxypropylcellulose) (HPC) 105 % of control | dose: 200.0 mg/kg/injection, schedule: Q01DX009 (ip), vehicle: Klucel (hydroxypropylcellulose) (HPC) 105 % of control

NC(CO)C(=O)O (stereo not drawn)
inactive: [8] 102 % of control | [9] 105 % of control | [11] 110 % of control | [10] 114 % of control | [12] 112 % of control [middle of 4 runs] | [13] 104 % of control [middle of 4 runs] | [14] 99 % of control | dose: 200.0 mg/kg/injection, schedule: Q01DX009 (ip), vehicle: saline 110 % of control [middle of 4 runs] | dose: 200.0 mg/kg/injection, schedule: Q04DX003 (ip), vehicle: saline with Tween-80 97 % of control | dose: 400.0 mg/kg/injection, schedule: Q04DX003 (ip), vehicle: saline with Tween-80 100 % of control

Fc1ccccc1CSc1ncnc2nc[nH]c12
inactive: [10] 100 % of control | [3] 100 % of control | [14] 104 % of control | dose: 132.0 mg/kg/injection, schedule: Q04DX003 (ip), vehicle: saline with Tween-80 100 % of control | [4] 100 % of control

CCCS/C(N)=N/N=C/c1ccc([N+](=O)[O-])o1
inactive: dose: 6.25 mg/kg/injection, schedule: Q01DX009 (ip), vehicle: suspension in saline 102 % of control | dose: 12.5 mg/kg/injection, schedule: Q01DX009 (ip), vehicle: suspension in saline 92 % of control | dose: 25.0 mg/kg/injection, schedule: Q01DX009 (ip), vehicle: suspension in saline 91 % of control | dose: 50.0 mg/kg/injection, schedule: Q01DX009 (ip), vehicle: suspension in saline 109 % of control

O=C1OC(c2ccc(O)cc2)(c2ccc(O)cc2)c2ccccc21
inactive: dose: 100.0 mg/kg/injection, schedule: Q04DX002 (ip), vehicle: saline with Tween-80 99 % of control | dose: 200.0 mg/kg/injection, schedule: Q04DX002 (ip), vehicle: saline with Tween-80 103 % of control | dose: 400.0 mg/kg/injection, schedule: Q04DX002 (ip), vehicle: saline with Tween-80 93 % of control

CCN(CC)CCOc1ccc(C)c(C)c1
inactive: [5] 106 % of control | [6] 103 % of control

Nc1ccc2c(c1N)C(=O)c1ccccc1C2=O
inactive: dose: 50.0 mg/kg/injection, schedule: Q01DX005 (ip), vehicle: Klucel (hydroxypropylcellulose) (HPC) 101 % of control | dose: 100.0 mg/kg/injection, schedule: Q01DX005 (ip), vehicle: Klucel (hydroxypropylcellulose) (HPC) 100 % of control | dose: 200.0 mg/kg/injection, schedule: Q01DX005 (ip), vehicle: Klucel (hydroxypropylcellulose) (HPC) 100 % of control
